# Test results taken from ChEMBL document CHEMBL3507680, “University of Dundee, Gates Library screen for HepG2 cell viability”.
# Test: Human HepG2 cell viability assay in 384 well format
# Assay type: toxicity, cell-based
# Design: dose 125 nL, time 70.5 hour; concentration not given beside the values
# Conditions: HepG2 cells, read-out: Inhibition
smiles,measurement,value
COCCNC(=O)[C@@H](C)[C@@H]1CCc2c(C)cc(OCC(=O)O)c(C)c2C1,cytotoxicity at 70.5 h,-6%
CC[C@H]1CN(S(=O)(=O)c2ccc(OC)cc2)CC[C@H]1CC(=O)O,cytotoxicity at 70.5 h,-9.14%
COCCOc1ccc(C(=O)N[C@@H]2CNCCC[C@H]2O)cc1,cytotoxicity at 70.5 h,-2.53%
Cn1ccnc1CN1CCOC[C@H]1c1nc(C(C)(C)C)co1,cytotoxicity at 70.5 h,-1.75%
CN(C)c1ccc(-c2noc([C@@H]3CCCN3)n2)cn1,cytotoxicity at 70.5 h,6.36%
COCCNc1ccc(-c2noc([C@@H]3CCCN3)n2)cn1,cytotoxicity at 70.5 h,6.15%
CN1[C@@H](CCC(=O)NCc2ccc(F)cc2)CNC(=O)[C@H]2NCC[C@H]21,cytotoxicity at 70.5 h,-2.11%
c1ccc(-c2nnc([C@H]3CCN(C4CCOCC4)C3)o2)cc1,cytotoxicity at 70.5 h,-0.562%
Cn1cncc1-c1nnc([C@H]2CCN(CC3CCCCC3)C2)o1,cytotoxicity at 70.5 h,-1.28%
c1ccc(Cc2nnc([C@H]3CCN(C4CCCCC4)C3)o2)cc1,cytotoxicity at 70.5 h,1.09%
NC(=O)CN1C(=O)CO[C@H]2CN(Cc3ccc(C(F)(F)F)cc3)C[C@H]21,cytotoxicity at 70.5 h,-1.74%
COCCN1C(=O)CO[C@H]2CN(CCCc3ccccc3)C[C@H]21,cytotoxicity at 70.5 h,-1.96%
Clc1ccc(-c2c[nH]c([C@@H]3COCCN3)n2)cc1,cytotoxicity at 70.5 h,-0.826%
CC(=O)N1CCC(N2CCOC[C@H]2c2nc(C(C)(C)C)c[nH]2)CC1,cytotoxicity at 70.5 h,-2.09%
COc1ccccc1C(=O)Nc1ccc([C@@H](O)[C@H]2COCC(=O)N2)cc1,cytotoxicity at 70.5 h,-4.28%
N#Cc1cccc(C(=O)Nc2ccc([C@@H](O)[C@H]3COCC(=O)N3)cc2)c1,cytotoxicity at 70.5 h,-9.14%
Fc1ccc(CN2CCOC[C@H](Oc3cccnc3)C2)cc1,cytotoxicity at 70.5 h,10.5%
CNC(=O)C(C)(C)N1CCC[C@H]1C(=O)NC1CC1,cytotoxicity at 70.5 h,-9.14%
Oc1ccccc1CN1C[C@H](O)C[C@H]1c1nc(Cc2ccccc2)no1,cytotoxicity at 70.5 h,-6.19%
CN1C[C@@H](NC(=O)C2CC2)C[C@H]1c1nc(-c2cnccn2)no1,cytotoxicity at 70.5 h,1.69%
CCN(CC)C1(Cc2cc(CC(C)C)on2)COC1,cytotoxicity at 70.5 h,0.19%
O=C1CO[C@H]2CN(S(=O)(=O)c3ccccc3)C[C@H]2N1Cc1ccccc1,cytotoxicity at 70.5 h,-9.3%
Cc1ccccc1CN1C[C@@H]2OCC(=O)N(CC(N)=O)[C@@H]2C1,cytotoxicity at 70.5 h,-0.694%
Cn1ccnc1CN1C[C@@H](F)[C@@H](OCc2nc3cnccc3[nH]2)C1,cytotoxicity at 70.5 h,13.1%
CN(C)[C@@H]1CO[C@H](CNC(=O)CC(C)(C)C)[C@H]1O,cytotoxicity at 70.5 h,-0.485%
O=C(NC[C@H]1OC[C@@H](NC2CCC(F)(F)CC2)[C@@H]1O)N1CCOCC1,cytotoxicity at 70.5 h,-6.74%
O=C1N(Cc2ccccn2)C[C@H]2CN(S(=O)(=O)c3ccccc3)CCN12,cytotoxicity at 70.5 h,-0.174%
Cc1nc(C)c(CN2CCOC[C@H](Oc3ccc(S(C)(=O)=O)cc3)C2)s1,cytotoxicity at 70.5 h,0.478%
Cc1ccc(CN2CC[C@H](c3nnc(COc4ccc(F)cc4)o3)C2)o1,cytotoxicity at 70.5 h,-6.96%
O=C(NCc1ccccc1)[C@@H]1Cc2[nH]cnc2CN1CC1CC1,cytotoxicity at 70.5 h,-3.43%
CN1C[C@@H](NC(=O)c2ccccc2)C[C@H]1c1nc(-c2cnccn2)no1,cytotoxicity at 70.5 h,10.6%
Cc1noc([C@@H]2C[C@H](NC(=O)C3CCCCC3)CN2C)n1,cytotoxicity at 70.5 h,0.213%
COCC(=O)Nc1ccc(-c2noc([C@@H]3CCCN3CC(C)C)n2)cn1,cytotoxicity at 70.5 h,10.2%
CC(C)N1CC[C@H](c2nc3ccc(C(F)(F)F)cc3[nH]2)C1,cytotoxicity at 70.5 h,-5.84%
COc1ccc2[nH]c(C[C@@H]3C[C@@H](C(C)C)[C@H](CN(C)C)C=C3C)nc2c1,cytotoxicity at 70.5 h,-3.19%
CN1CCC(N[C@@H]2CO[C@H](CNC(=O)C3CCCC3)[C@H]2O)CC1,cytotoxicity at 70.5 h,-3.54%
CC(=O)N1CCN2C(=O)N(Cc3ccc(F)cc3)C[C@H]2C1,cytotoxicity at 70.5 h,-13%
O=C(c1ccno1)N1CCN2C(=O)N(Cc3ccc(F)cc3)C[C@H]2C1,cytotoxicity at 70.5 h,-8.27%
O=C1N(Cc2ccccn2)C[C@H]2CN(C3CCC3)CCN12,cytotoxicity at 70.5 h,2.38%
O=S(=O)(c1ccc(F)cc1)N1CCOC[C@H](Oc2cnccn2)C1,cytotoxicity at 70.5 h,12.5%
CO[C@H]1COCCN(C(=O)c2ccno2)C1,cytotoxicity at 70.5 h,-1.71%
CO[C@H]1COCCN(C(=O)c2cc(C)oc2C(F)(F)F)C1,cytotoxicity at 70.5 h,-3.96%
CNC(=O)[C@@H](C1CCCCC1)N1CCC[C@H]1C(=O)NC1CC1,cytotoxicity at 70.5 h,-20.1%
CCNC(=O)O[C@H]1COCCN(c2nc3ccccc3s2)C1,cytotoxicity at 70.5 h,-2.95%
Cc1cccc(CNC[C@H]2Cn3cc(-c4ccccc4)nc3CO2)n1,cytotoxicity at 70.5 h,-7.12%
CN1CCC(N2CCOC[C@H](OCC(=O)N(C)C)C2)CC1,cytotoxicity at 70.5 h,0.483%
CC[C@H]1CN2CC[C@H]1C[C@@H]2CNCc1ccc2c(c1)OCO2,cytotoxicity at 70.5 h,-5.69%
O=C(c1cc(CC2(NC3CCCCC3)COC2)no1)N1CCCCC1,cytotoxicity at 70.5 h,11.7%
CC(C)CS(=O)(=O)Nc1ccc([C@H]2OCC(=O)N[C@@H]2CO)cc1,cytotoxicity at 70.5 h,0.34%
O=C(NC[C@H]1OC[C@@H](NC(=O)C2CCCC2)[C@@H]1O)c1ccncc1,cytotoxicity at 70.5 h,13.7%
CC(C)N1CCN2C(=O)N(C3CCCCC3)C[C@H]2C1,cytotoxicity at 70.5 h,0.287%
COc1ccc(CNC[C@H]2Cn3ccnc3CO2)cn1,cytotoxicity at 70.5 h,-2.5%
O=C(O)C[C@@H]1CCN(C(=O)c2cccs2)C[C@@H]1CCN1CCCCC1,cytotoxicity at 70.5 h,-3.9%
COCCN1CCN(C(=O)C[C@@H]2C[C@@H](C(C)C)[C@H](CO)C=C2C)CC1,cytotoxicity at 70.5 h,-3.05%
CC[C@H]1CN(C(=O)c2cccnc2)CC[C@H]1CC(=O)NCCOC,cytotoxicity at 70.5 h,-1.87%
CC(C)(C)c1cn(C[C@H]2CC3CCN2C[C@@H]3C(=O)N2CCOCC2)nn1 (stereo not given in full),cytotoxicity at 70.5 h,2.28%
COCc1cn(C[C@H]2CC3CCN2C[C@@H]3C(=O)Nc2ccccc2)nn1 (stereo not given in full),cytotoxicity at 70.5 h,-6.64%
O=C(Nc1ccccc1)[C@H]1CN2CCC1C[C@@H]2Cn1cc(CO)nn1 (stereo not given in full),cytotoxicity at 70.5 h,-9.02%
CC[C@H]1CN2CC[C@H]1C[C@@H]2CNC(=O)c1ccco1,cytotoxicity at 70.5 h,-1.78%
CC[C@H]1CN2CC[C@H]1C[C@@H]2CNC(=O)Nc1cccc(C#N)c1,cytotoxicity at 70.5 h,13.7%
CC[C@H]1CN2CC[C@H]1C[C@@H]2CNC(=O)NC1CCCCC1,cytotoxicity at 70.5 h,4.29%
CC[C@H]1CN(C(=O)C2CC2)CC[C@H]1CC(=O)NCCN1CCOCC1,cytotoxicity at 70.5 h,-0.373%
COCC(=O)N1CCN(C(C)=O)C[C@@H]1C(=O)OC,cytotoxicity at 70.5 h,12.2%
O=C(NC[C@H]1C[C@@H]2CCN1C[C@@H]2CN1CCCCC1)Nc1ccsc1,cytotoxicity at 70.5 h,-16%
O=C(NC[C@H]1C[C@@H]2CCN1C[C@@H]2CN1CCCCC1)c1ccco1,cytotoxicity at 70.5 h,0.157%
COCC(=O)NC[C@H]1C[C@@H]2CCN1C[C@@H]2CN(C)c1ccccc1,cytotoxicity at 70.5 h,0.807%
CC[C@H]1CN(C(=O)C(C)(C)C)CC[C@H]1CC(=O)O,cytotoxicity at 70.5 h,7.7%
COc1ncccc1CN1CCc2[nH]nc(C(=O)N(C)C)c2C1,cytotoxicity at 70.5 h,-11.3%
Cc1cccc(CN2CCCC23CCNC3)n1 (stereo not given),cytotoxicity at 70.5 h,24.8%
COCCN1C[C@H]2CCN(C(=O)c3cc(C)on3)CC[C@H]2S1(=O)=O,cytotoxicity at 70.5 h,-5.47%
CN1CCN(Cc2cccnc2)C(=O)C12CCN(S(C)(=O)=O)CC2,cytotoxicity at 70.5 h,-5.92%
CNCc1cc(F)ccc1Oc1ccc(F)cc1,cytotoxicity at 70.5 h,2.53%
COc1ccc(C2=CNC(C(F)(F)F)=CC2N)cc1 (stereo not given),cytotoxicity at 70.5 h,-0.00247%
CC(C)c1cc(CN2CCC(N)CC2)no1,cytotoxicity at 70.5 h,-6.06%
Cc1nn(C)cc1-c1cc(C(F)F)n2nc(CCC(=O)O)nc2n1,cytotoxicity at 70.5 h,-0.99%
CCOCn1cc(NC(=O)C2CCN(S(C)(=O)=O)CC2)cn1,cytotoxicity at 70.5 h,-2.16%
CS(=O)(=O)N1CCCC(C(=O)Nc2cnn(Cc3ccc(Cl)cc3)c2)C1 (stereo not given),cytotoxicity at 70.5 h,0.541%
CCc1nc(C)cn1C(=O)Nc1ccccc1,cytotoxicity at 70.5 h,2.98%
CCc1nc(C)cn1C(=O)Nc1ccc(F)cc1,cytotoxicity at 70.5 h,5.48%
O=C(O)Cc1nc2nccc(-c3ccc(F)cc3)n2n1,cytotoxicity at 70.5 h,17.4%
N#Cc1cc2c(nc1O)CCCCC2,cytotoxicity at 70.5 h,-2.17%
Cn1c(=O)c2cc(C(=O)NCCOc3ccccc3)ccc2n(C)c1=O,cytotoxicity at 70.5 h,24.3%
Cn1c(=O)c2cc(C(=O)NCc3ccccn3)ccc2n(C)c1=O,cytotoxicity at 70.5 h,-4.37%
CC(CC#N)n1ccc(C(F)(F)F)n1 (stereo not given),cytotoxicity at 70.5 h,-0.316%
CCC(CC#N)n1ccc(C(F)(F)F)n1 (stereo not given),cytotoxicity at 70.5 h,22.2%
Cc1nn(C)cc1-c1cc(C(F)(F)F)n(CCCN)n1,cytotoxicity at 70.5 h,-0.484%
Cc1cc(C(F)(F)F)nn1CCCNC(=O)C1CCCO1 (stereo not given),cytotoxicity at 70.5 h,16.3%
COC(=O)N1CC(C)=C(C)CN1C(=O)Nc1cccc(Cl)c1,cytotoxicity at 70.5 h,0.501%
CCOC(=O)N1CC(C)=C(C)CN1C(=O)Nc1ccc(Cl)c(Cl)c1,cytotoxicity at 70.5 h,6.17%
Cc1cc(Br)c(O)c(-c2nc(N3CCOCC3)sc2C)c1,cytotoxicity at 70.5 h,5.07%
NC(=O)c1c[nH]nc1NC(=O)c1cccc(Cl)c1,cytotoxicity at 70.5 h,-3.76%
COc1ccccc1-c1cc(C(F)(F)F)c2c(C)nn(CC(=O)O)c2n1,cytotoxicity at 70.5 h,18.1%
CCc1cc(C(F)(F)F)c2c(C)nn(CC(=O)O)c2n1,cytotoxicity at 70.5 h,4.66%
CCn1ncc(Br)c1CN(C)S(=O)(=O)c1ccc(C)cc1,cytotoxicity at 70.5 h,8.37%
CNC(=O)c1cccc(C2CNCCN2C)c1 (stereo not given),cytotoxicity at 70.5 h,19.9%
CC(C)N1CCC(Cc2cc(-c3ccccc3C(=O)O)ncn2)CC1,cytotoxicity at 70.5 h,16.5%
CNC(=O)[C@@H](c1ccccc1F)N1CCC[C@H]1C(=O)NC1CC1,cytotoxicity at 70.5 h,-4.55%
CNC(=O)[C@@H](c1ccccc1)N1CCC[C@H]1C(=O)NC1CCCCC1,cytotoxicity at 70.5 h,-2.47%
CNC(=O)[C@@H](c1ccccc1)N1CCC[C@H]1C(=O)NCc1ccccn1,cytotoxicity at 70.5 h,-6.43%
O[C@@H]1C[C@@](CNCc2cccc(Cl)c2)(COc2cccnc2)C[C@@H]1O,cytotoxicity at 70.5 h,-2.94%
Cc1cccc(CN2C[C@@H](C)[C@@]3(CCN(CC(=O)N(C)C)C3=O)C2)c1,cytotoxicity at 70.5 h,-10%
Cc1nn(C)c(C)c1S(=O)(=O)N1CC[C@@H]2O[C@@H](C)C[C@H]2C1,cytotoxicity at 70.5 h,-11.2%
CCN1CC[C@@]2(C(=O)N3CCOCC3)CCN(C(=O)C(C)C)CC[C@@H]12,cytotoxicity at 70.5 h,18.4%
Cn1cccc1C(=O)N1C[C@H]2CN(Cc3cccc(F)c3)C[C@H]2C1,cytotoxicity at 70.5 h,-6.11%
CNCc1cc(F)ccc1Oc1ccc(Cl)cc1,cytotoxicity at 70.5 h,2.13%
